Assay results reported in patent EP3130589A1, “HETEROCYCLIC AZA COMPOUNDS” (Grünenthal GmbH, priority 2015, dated 2017).

Biological target: T1, TRPV1 human (Homo sapiens, UniProt Q8NER1)
T1 construct: expressed in transfected cells; host or cells: CHO K1 cells
Assay: Functional testing on the vanilloid receptor 1 (VR1/TRPV1): FLIPR Ca2+ influx assay, inhibition of capsaicin (CAP) stimulation
Type: cell-based
Details: functional (f) FLIPR assay, capsaicin (CAP) 100 nM; Ki from IC50 by Cheng-Prusoff equation
Experimental: Furthermore, preference may be given to compounds according to the invention that cause a 50 per cent displacement of capsaicin, which is present at a concentration of 100 nM, in a FLIPR assay with CHO K1 cells which were transfected with the human VR1 gene at a concentration of less than 6,000 nM, preferably less than 5,000 nM, more preferably less that 3,000 nM or less than 1,000 nM and particularly preferably less than 300 nM, most particularly preferably less than 100 nM, even more preferably less than 75 nM, additionally preferably less than 50 nM, most preferably less than 10 nM.
In the process, the Ca^2+ influx is quantified in the FLIPR assay with the aid of a Ca^2+-sensitive dye (type Fluo-4, Molecular Probes Europe BV, Leiden, the Netherlands) in a fluorescent imaging plate reader (FLIPR, Molecular Devices, Sunnyvale, USA), as described hereinafter.
Functional testing carried out on the vanilloid receptor 1 (VRI/TRPV1 receptor) […]
The number of cells in the suspension is set to 3 x 10^5 per mL and 150 µL of this suspension are in each case introduced into a recess in the cell culture plates coated as described hereinbefore. In the incubator the plates are left for two to three days at 37°C, 5 vol.-% of CO2 and 95 % relative humidity. Subsequently, the cells are loaded with 2 µM of Fluo-4 and 0.01 vol.-% of Pluronic F127 (Molecular Probes Europe BV, Leiden, the Netherlands) in HBSS buffer for 30 min at 37°C, washed 3 times with HBSS buffer and after further incubation for 15 min at RT used for Ca^2+ measurement in a FLIPR assay. The Ca^2+-dependent fluorescence is in this case measured before and after the addition of substances (λex = 488 nm, λem = 540 nm). Quantification is carried out by measuring the highest fluorescence intensity (FC, fluorescence counts) over time.
The FLIPR protocol consists of 2 substance additions. First the compounds to be tested (10 µM) are pipetted onto the cells and the Ca^2+ influx is compared with the control (capsaicin 10 µM). This provides the result in % activation based on the Ca^2+ signal after the addition of 10 µM of capsaicin (CP). After 5 min incubation, 100 nM of capsaicin are applied and the Ca^2+ influx is also determined. Desensitising agonists and antagonists lead to suppression of the Ca^2+ influx. The % inhibition is calculated compared to the maximum achievable inhibition with 10 µM of capsazepine.
Triple analyses (n=3) are carried out and repeated in at least 3 independent experiments (N=4). Starting from the percentage displacement caused by different concentrations of the compounds to be tested of general formula I, IC50 inhibitory concentrations which cause a 50% displacement of capsaicin were calculated.
Ki values for the test substances were obtained by conversion by means of the Cheng-Prusoff equation (Cheng, Prusoff; Biochem. Pharmacol. 22, 3099-3108, 1973).

T1 sequence (Q8NER1 whole entry): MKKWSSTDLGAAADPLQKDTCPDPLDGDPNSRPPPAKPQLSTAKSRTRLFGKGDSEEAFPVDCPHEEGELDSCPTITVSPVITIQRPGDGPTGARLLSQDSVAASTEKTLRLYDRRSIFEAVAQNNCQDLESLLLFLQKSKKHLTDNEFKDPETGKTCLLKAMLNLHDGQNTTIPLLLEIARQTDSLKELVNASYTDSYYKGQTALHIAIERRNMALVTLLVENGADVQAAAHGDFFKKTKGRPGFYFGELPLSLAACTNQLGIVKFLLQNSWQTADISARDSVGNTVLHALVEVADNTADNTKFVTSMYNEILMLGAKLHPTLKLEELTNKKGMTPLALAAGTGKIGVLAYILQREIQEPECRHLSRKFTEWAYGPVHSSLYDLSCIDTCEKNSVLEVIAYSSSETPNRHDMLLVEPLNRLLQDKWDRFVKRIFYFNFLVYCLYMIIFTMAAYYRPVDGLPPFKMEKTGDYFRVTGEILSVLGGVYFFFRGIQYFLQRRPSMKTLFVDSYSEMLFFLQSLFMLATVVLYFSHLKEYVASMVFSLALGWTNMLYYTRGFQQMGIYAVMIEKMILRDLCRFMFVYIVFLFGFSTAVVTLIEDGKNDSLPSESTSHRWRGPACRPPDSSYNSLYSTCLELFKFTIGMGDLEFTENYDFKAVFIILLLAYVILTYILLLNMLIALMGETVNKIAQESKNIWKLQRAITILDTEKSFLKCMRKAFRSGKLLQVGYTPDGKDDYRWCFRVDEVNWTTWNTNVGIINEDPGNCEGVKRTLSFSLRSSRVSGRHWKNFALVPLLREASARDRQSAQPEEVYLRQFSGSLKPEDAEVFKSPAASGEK

`CC(C(=O)NCc1ccc(C(F)(F)F)nc1N1CCCC1)c1cn(C)c2ccc(O)cc12` (stereo not shown) [example compound 5, 2-(5-hydroxy-1-methyl-1H-indol-3-yl)-N-((2-(pyrrolidin-1-yl)-6-(trifluoromethyl)pyridin-3-yl)methyl)propanamide] was tested, and the Ki was 5 nM.
